Test systems include A498; BT-549; CCRF-CEM; DU-145; HCT-116; HL-60; KM12; MCF7; MOLT-4; Malme-3M; NCI-H460; NCI/ADR-RES; SF-268; SK-MEL-5; SR; SW-620; U-251; UACC-62; UO-31; T47D.
Assay in all cases: inhibition of tumour cell growth, NCI panel, 48 h

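Following 48 hours of exposure in 96-well plates, responses at five concentrations were used to interpolate endpoints linearly. GI50 is the concentration that inhibits growth by half.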 The source made the active and inactive calls. No stated cut-off is given here; in the data, active = GI50 up to about 1.1 µM and inactive = higher.

As for `CC(=O)NS(=O)(=O)c1ccc(NC(=O)c2c3ccccc3nc3ccccc23)cc1`, the GI50 in the assay on A498 is > 100 µM (inactive); in the assay on BT-549 it was > 100 µM (inactive); with CCRF-CEM, > 100 µM (inactive); with DU-145, > 100 µM (inactive); with HCT-116 it was > 100 µM (inactive); with HL-60, 1.48 µM (inactive). Moreover, the GI50 in the assay on KM12 was > 100 µM (inactive); with MCF7, > 100 µM (inactive); in the assay with MOLT-4, > 100 µM (inactive); in the assay on Malme-3M, 34.4 µM (inactive); in the assay on NCI-H460, > 100 µM (inactive); in the assay with NCI/ADR-RES, > 100 µM (inactive). Also, the GI50 with SF-268, in the assay on SK-MEL-5, with SR, with SW-620, in the assay with U-251 and in the assay on UACC-62 was > 100 µM (inactive) in each case. Moreover, the GI50 with UO-31 was 30.4 µM (inactive).
`O=C(Cn1c2ccc(Br)cc2c2nc3ccccc3nc21)Nc1ccccc1`: the GI50 with A498 is 34 µM (inactive); in the assay with BT-549 it was > 100 µM (inactive); in the assay on CCRF-CEM, 11.9 µM (inactive); with DU-145 it was 59.2 µM (inactive); with HCT-116 it was 14.5 µM (inactive); in the assay with KM12 it was 56.8 µM (inactive). Moreover, the GI50 in the assay with MOLT-4 is > 100 µM (inactive); in the assay on Malme-3M it was 28.6 µM (inactive); with NCI-H460, 31.8 µM (inactive); with NCI/ADR-RES, 20 µM (inactive); in the assay on SF-268, 45.2 µM (inactive); in the assay on SK-MEL-5 it was 34.6 µM (inactive). Moreover, the GI50 is 24.8 µM (inactive) in the assay with SW-620; 20.1 µM (inactive) with T47D; 24 µM (inactive) with U-251; 48.1 µM (inactive) in the assay on UACC-62; 42.2 µM (inactive) in the assay on UO-31.
As to `Oc1ccc2ccccc2c1/N=N/c1ccc(Br)cc1`, the GI50 with BT-549 was > 100 µM (inactive); with CCRF-CEM, > 100 µM (inactive); in the assay with DU-145, > 100 µM (inactive); in the assay with HCT-116, > 100 µM (inactive); in the assay with HL-60 it was > 100 µM (inactive); in the assay with KM12, 77.6 µM (inactive). Also, the GI50 in the assay on MOLT-4 is > 100 µM (inactive); in the assay with Malme-3M, 66.1 µM (inactive); in the assay with NCI/ADR-RES, > 100 µM (inactive); with SF-268, 23.6 µM (inactive); in the assay on SK-MEL-5, > 100 µM (inactive); with SR it was > 100 µM (inactive). In addition, the GI50 in the assay on SW-620, in the assay on T47D, in the assay with U-251, in the assay on UACC-62 and in the assay with UO-31 was > 100 µM (inactive) each time.
Regarding `COC(=O)c1c(O)ccc2c1c1c(n2Cc2ccccc2)C(=O)c2ccccc2C1`, the GI50 with A498 is 64.7 µM (inactive); in the assay on BT-549 it was 58.6 µM (inactive); in the assay on CCRF-CEM, 21.1 µM (inactive); in the assay on DU-145, 99.3 µM (inactive); in the assay with HCT-116, 54.6 µM (inactive); in the assay on HL-60 it was 12.6 µM (inactive). For the same molecule, the GI50 with KM12 is 35.1 µM (inactive); in the assay with MCF7 it was 25.4 µM (inactive); with MOLT-4, 3.17 µM (inactive); with Malme-3M it was 69.5 µM (inactive); with NCI-H460, 31.9 µM (inactive); with NCI/ADR-RES, 25.8 µM (inactive). The GI50 in the assay on SF-268 is 39 µM (inactive); in the assay on SK-MEL-5, 50 µM (inactive); in the assay with SR, 7.48 µM (inactive); with SW-620, 74 µM (inactive); in the assay with U-251, 38 µM (inactive); in the assay with UACC-62, 36.9 µM (inactive). The GI50 in the assay with UO-31 is 49.4 µM (inactive).
`N[C@@H](CCC(=O)NCP(=O)(O)O)C(=O)O`: the GI50 in the assay on A498, in the assay on BT-549, in the assay on HCT-116, in the assay with HL-60, in the assay with KM12 and with MCF7 was > 100 µM (inactive) in each case. Besides, the GI50 in the assay with MOLT-4, in the assay on Malme-3M, in the assay with NCI-H460, in the assay with NCI/ADR-RES, in the assay with SK-MEL-5 and in the assay with SR was > 100 µM (inactive) each time. Also, the GI50 with SW-620, with T47D, with U-251, in the assay on UACC-62 and in the assay with UO-31 was > 100 µM (inactive) each time.
For `CCOC(=O)c1c(C)nc2c(c1-c1cn(-c3ccccc3)nc1-c1ccccc1)C(=O)c1ccccc1-2`, the GI50 is > 100 µM (inactive) with A498; > 100 µM (inactive) in the assay on BT-549; > 100 µM (inactive) in the assay on CCRF-CEM; > 100 µM (inactive) with DU-145; > 100 µM (inactive) in the assay with HCT-116; 0.337 µM (active) in the assay on KM12. Also, the GI50 in the assay with MOLT-4 is > 100 µM (inactive); with Malme-3M, > 100 µM (inactive); in the assay with NCI/ADR-RES, > 100 µM (inactive); in the assay on SF-268, > 100 µM (inactive); with SK-MEL-5 it was > 100 µM (inactive); with SR it was > 10 µM (inactive). Further, the GI50 in the assay with SW-620, in the assay with T47D, with U-251 and in the assay with UACC-62 was > 100 µM (inactive) in each case.
Regarding `Cc1nc2c(=O)n(C)c(=O)n(C)c2o1`, the GI50 was > 100 µM (inactive) in the assay with A498; > 100 µM (inactive) in the assay on BT-549; > 100 µM (inactive) in the assay on CCRF-CEM; > 100 µM (inactive) with HCT-116; > 100 µM (inactive) in the assay on KM12; > 10 µM (inactive) in the assay on MCF7. For the same molecule, the GI50 with MOLT-4, in the assay on Malme-3M, in the assay with NCI-H460, with NCI/ADR-RES, in the assay with SF-268 and with SK-MEL-5 was > 100 µM (inactive) throughout. Moreover, the GI50 in the assay with SR, in the assay with SW-620, with T47D, with U-251, with UACC-62 and with UO-31 was > 100 µM (inactive) in each case.
With `COc1cc(NS(C)(=O)=O)ccc1Nc1c2ccccc2nc2ccccc12` [AMSACRINE], the GI50 in the assay on BT-549 was 1.04 µM (active); with CCRF-CEM, 0.0561 µM (active); in the assay on HCT-116, 0.955 µM (active); in the assay with HL-60, 0.0519 µM (active); in the assay on KM12, 1.44 µM (inactive); in the assay with MCF7, 0.103 µM (active). The GI50 is 0.0332 µM (active) in the assay with MOLT-4; 0.611 µM (active) in the assay on Malme-3M; 0.028 µM (active) with NCI-H460; 3.42 µM (inactive) in the assay on NCI/ADR-RES; 0.415 µM (active) with SF-268; 0.319 µM (active) with SK-MEL-5. Moreover, the GI50 was 0.561 µM (active) in the assay on SW-620; 0.441 µM (active) in the assay on T47D; 0.166 µM (active) in the assay with U-251; 0.285 µM (active) with UACC-62; 0.661 µM (active) with UO-31.

These data come from ChEMBL document CHEMBL1201862, “PubChem BioAssay data set” (2004).
